Measurements: patent US12391664B2, “GluN2C/D subunit selective antagonists of the N-methyl-D-aspartate receptor” (Emory University, priority 2018, dated 2025)
Like-named read-outs stand apart in the source and are kept apart here.

Columns and labels:
Assay type in all cases: cell-based
[1] = biological target: T1, recombinant rat GluN1/GluN2B (Rattus norvegicus, UniProt Q00960); assay: Two-electrode voltage-clamp recordings in Xenopus laevis oocytes, GluN2B; settings: oocytes, 100 μM glutamate and 30 μM glycine
T1 construct: expressed in transfected cells; host or cells: Xenopus laevis oocytes injected with cRNA (GluN1:GluN2 ratio 1:2)
Method: (§1) All target compounds were evaluated for activity by the Traynelis laboratory at Emory University using two-electrode voltage-clamp recordings performed in Xenopus laevis oocytes expressing recombinant GluN2A-D subunits (Table 1). […] Two ester compounds 997-65 and 997-66 also performed no inhibition at GluN2A to GluN2D receptors. […] Consequently, for the compounds that Acker et al. already published, it was necessary to increase the concentration to 100 μM when collecting data for a concentration effect curve. […] Therefore, under this condition, we can only conclude that compound 997-67 remained potent at GluN2C/D-containing receptors, but its selectivity over GluN2A- and GluN2B-containing receptors could not be compared to 997-57. […] Finally, replacing the carboxylic acid to the bio-isostere amide yielded compounds 997-96 and 997-115, which dropped the potency 2- to 4-fold in comparison to their corresponding acids 997-74 and 997-114.
(§2) Two-electrode voltage-clamp recordings were performed in Xenopus laevis oocytes that were injected with mRNA to express recombinant rat GluN1/GluN2A, GluN1/GluN2B, GluN1/GluN2C, and GluN1/GluN2D. The recordings using unfertilized oocytes from Xenopus laevis were permitted by Emory University Institutional Animal Care and Use Committee (IACUC). An automatic injector (Nanoject II, Drummond Scientific) was used for cRNA injection using the pipettes filled with mineral oil. The cRNA that transcribed in vitro via the mMessage Machine kit (Ambion) was diluted with nuclease-free water, and then injected at GluN1/GluN2 with a ratio of 1:2. The oocytes were stored in Barth's solution that contained 88 mM NaCl, 5.0 mM Tris-HCl, 2.4 mM NaHCO3, 1.0 mM KCl, 0.84 mM MgSO4, 0.41 mM CaCl2, 0.33 mM Ca(NO3)2, 0.1 mg/ml gentamycin sulfate, 1.0 U/ml penicillin, and 1 μg/ml streptomycin at a pH of 7.4 and temperatures of 15-17° C. for two to five days before the two-electrode voltage-clamp recordings. When recording, the oocytes were placed in a perfusion chamber and continually washed with the recording solution comprised of 90 mM NaCl, 1.0 mM KCl, 0.50 mM BaCl2, 0.005 mM EDTA, and 10 mM HEPES at a pH of 7.4 and a temperature of 23° C. Glass electrodes with a tip resistance of 0.5 to 2.5 MΩ were obtained from thin-walled glass capillary tubes. Voltage electrodes and current electrodes were filled with 0.3 M and 3.0 M KCl, respectively. The recordings were executed with the oocytes membrane potential holding at −40 m V by an OC-725 amplifier (Warner Instrument Co). All compounds were dissolved in dimethyl sulfoxide (DMSO) as 20 mM stock solutions and future diluted to reach the desired concentration (0.05-0.5% (vol/vol) DMSO) in recording solution comprised of 30 μM glycine and 100 μM glutamate. Each compound was recorded 3-7 times in the least 4 oocytes from at least 2 different Xenopus laevis.
(§3) To evaluate the inhibition of compounds, the concentration-response curve was fitted with the average two-electrode voltage-clamp recording results with the equation
(§4) [formula] • where IC50 is the concentration of compounds that inhibit half maximal of the current response and N is the Hill slope.

[2] = biological target: T2, recombinant rat GluN1/GluN2D (Rattus norvegicus, UniProt P35439+Q62645); assay: Two-electrode voltage-clamp recordings in Xenopus laevis oocytes, GluN2D
T2 construct: expressed in transfected cells; host or cells: Xenopus laevis oocytes injected with cRNA (GluN1:GluN2 ratio 1:2)
Method: as §1, §2, §3, §4

[3] = biological target: T3, recombinant rat GluN1/GluN2A (Rattus norvegicus, UniProt Q00959); assay: Two-electrode voltage-clamp recordings in Xenopus laevis oocytes, GluN2A; settings: oocytes, 100 μM glutamate and 30 μM glycine
T3 construct: expressed in transfected cells; host or cells: Xenopus laevis oocytes injected with cRNA (GluN1:GluN2 ratio 1:2)
Method: as §1, §2, §3, §4

[4] = biological target: T4, recombinant rat GluN1/GluN2C (Rattus norvegicus, UniProt P35439+Q00961); assay: Two-electrode voltage-clamp recordings in Xenopus laevis oocytes, GluN2C; settings: oocytes, 100 μM glutamate and 30 μM glycine; read-out: GluN2C IC50
T4 construct: expressed in transfected cells; host or cells: Xenopus laevis oocytes injected with cRNA (GluN1:GluN2 ratio 1:2)
Method: as §1, §2, §3, §4

[5] = biological target: T5, recombinant rat GluN1/GluN2B (Rattus norvegicus, UniProt P35439+Q00960); assay: Two-electrode voltage-clamp recordings in Xenopus laevis oocytes, GluN2B; settings: oocytes, 100 μM glutamate and 30 μM glycine
T5 construct: expressed in transfected cells; host or cells: Xenopus laevis oocytes injected with cRNA (GluN1:GluN2 ratio 1:2)
Method: as §1, §2, §3, §4

[6] = biological target: T6, recombinant rat GluN1/GluN2D (Rattus norvegicus, UniProt Q62645); assay: Two-electrode voltage-clamp recordings in Xenopus laevis oocytes, GluN2D; settings: for 2A IC50 / 2D IC50 / 2B IC50 / 2D IC50: ratio of IC50 values
T6 construct: expressed in transfected cells; host or cells: Xenopus laevis oocytes injected with cRNA (GluN1:GluN2 ratio 1:2)
Method: as §1, §2, §3, §4

[7] = GluN2C and GluN2D receptors, read-out: IC50 values at GluN2C and GluN2D receptors, range over the alcohol compounds
[8] = oocytes, 100 μM glutamate and 30 μM glycine, read-out: GluN2D IC50
[9] = read-out: IC50 at GluN2D-containing receptors

T2 sequence (Q62645 28-1323, other chains not shown): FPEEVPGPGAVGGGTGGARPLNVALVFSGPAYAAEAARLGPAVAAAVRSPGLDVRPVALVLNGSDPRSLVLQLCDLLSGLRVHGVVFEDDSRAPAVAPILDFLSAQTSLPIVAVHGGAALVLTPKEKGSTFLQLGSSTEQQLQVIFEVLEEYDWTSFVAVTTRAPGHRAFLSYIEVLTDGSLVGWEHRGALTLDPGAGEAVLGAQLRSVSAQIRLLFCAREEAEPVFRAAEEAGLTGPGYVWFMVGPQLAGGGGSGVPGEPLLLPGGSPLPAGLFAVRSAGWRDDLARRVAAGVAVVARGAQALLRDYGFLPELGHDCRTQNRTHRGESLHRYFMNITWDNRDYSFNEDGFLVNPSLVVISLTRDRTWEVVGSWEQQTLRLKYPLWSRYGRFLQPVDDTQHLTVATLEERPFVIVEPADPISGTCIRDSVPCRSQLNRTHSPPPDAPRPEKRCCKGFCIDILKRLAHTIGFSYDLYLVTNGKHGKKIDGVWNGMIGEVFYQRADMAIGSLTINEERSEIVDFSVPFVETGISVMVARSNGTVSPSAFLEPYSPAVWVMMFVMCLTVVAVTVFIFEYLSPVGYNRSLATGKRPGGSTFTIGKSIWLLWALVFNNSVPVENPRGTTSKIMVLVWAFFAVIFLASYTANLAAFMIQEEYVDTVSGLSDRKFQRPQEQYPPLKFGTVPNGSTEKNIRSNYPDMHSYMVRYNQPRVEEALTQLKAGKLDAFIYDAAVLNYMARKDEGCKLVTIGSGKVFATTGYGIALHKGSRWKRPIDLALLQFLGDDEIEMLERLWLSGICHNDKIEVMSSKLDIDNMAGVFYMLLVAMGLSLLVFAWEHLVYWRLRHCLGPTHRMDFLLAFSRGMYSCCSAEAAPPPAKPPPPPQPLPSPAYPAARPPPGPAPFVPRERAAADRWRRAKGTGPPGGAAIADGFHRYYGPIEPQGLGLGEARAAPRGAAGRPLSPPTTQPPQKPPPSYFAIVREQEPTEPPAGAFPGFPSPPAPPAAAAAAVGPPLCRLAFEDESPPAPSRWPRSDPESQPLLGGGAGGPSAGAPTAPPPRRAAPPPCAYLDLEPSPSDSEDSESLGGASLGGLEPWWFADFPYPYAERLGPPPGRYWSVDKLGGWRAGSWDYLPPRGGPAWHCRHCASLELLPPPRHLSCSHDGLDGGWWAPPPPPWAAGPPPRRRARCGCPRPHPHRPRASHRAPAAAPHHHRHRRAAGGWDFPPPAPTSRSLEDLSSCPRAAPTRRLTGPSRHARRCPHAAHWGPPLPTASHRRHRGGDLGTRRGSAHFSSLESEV
T6 sequence (Q62645 28-1323, other chains not shown): as above
T3 sequence (Q00959 23-1464, other chains not shown): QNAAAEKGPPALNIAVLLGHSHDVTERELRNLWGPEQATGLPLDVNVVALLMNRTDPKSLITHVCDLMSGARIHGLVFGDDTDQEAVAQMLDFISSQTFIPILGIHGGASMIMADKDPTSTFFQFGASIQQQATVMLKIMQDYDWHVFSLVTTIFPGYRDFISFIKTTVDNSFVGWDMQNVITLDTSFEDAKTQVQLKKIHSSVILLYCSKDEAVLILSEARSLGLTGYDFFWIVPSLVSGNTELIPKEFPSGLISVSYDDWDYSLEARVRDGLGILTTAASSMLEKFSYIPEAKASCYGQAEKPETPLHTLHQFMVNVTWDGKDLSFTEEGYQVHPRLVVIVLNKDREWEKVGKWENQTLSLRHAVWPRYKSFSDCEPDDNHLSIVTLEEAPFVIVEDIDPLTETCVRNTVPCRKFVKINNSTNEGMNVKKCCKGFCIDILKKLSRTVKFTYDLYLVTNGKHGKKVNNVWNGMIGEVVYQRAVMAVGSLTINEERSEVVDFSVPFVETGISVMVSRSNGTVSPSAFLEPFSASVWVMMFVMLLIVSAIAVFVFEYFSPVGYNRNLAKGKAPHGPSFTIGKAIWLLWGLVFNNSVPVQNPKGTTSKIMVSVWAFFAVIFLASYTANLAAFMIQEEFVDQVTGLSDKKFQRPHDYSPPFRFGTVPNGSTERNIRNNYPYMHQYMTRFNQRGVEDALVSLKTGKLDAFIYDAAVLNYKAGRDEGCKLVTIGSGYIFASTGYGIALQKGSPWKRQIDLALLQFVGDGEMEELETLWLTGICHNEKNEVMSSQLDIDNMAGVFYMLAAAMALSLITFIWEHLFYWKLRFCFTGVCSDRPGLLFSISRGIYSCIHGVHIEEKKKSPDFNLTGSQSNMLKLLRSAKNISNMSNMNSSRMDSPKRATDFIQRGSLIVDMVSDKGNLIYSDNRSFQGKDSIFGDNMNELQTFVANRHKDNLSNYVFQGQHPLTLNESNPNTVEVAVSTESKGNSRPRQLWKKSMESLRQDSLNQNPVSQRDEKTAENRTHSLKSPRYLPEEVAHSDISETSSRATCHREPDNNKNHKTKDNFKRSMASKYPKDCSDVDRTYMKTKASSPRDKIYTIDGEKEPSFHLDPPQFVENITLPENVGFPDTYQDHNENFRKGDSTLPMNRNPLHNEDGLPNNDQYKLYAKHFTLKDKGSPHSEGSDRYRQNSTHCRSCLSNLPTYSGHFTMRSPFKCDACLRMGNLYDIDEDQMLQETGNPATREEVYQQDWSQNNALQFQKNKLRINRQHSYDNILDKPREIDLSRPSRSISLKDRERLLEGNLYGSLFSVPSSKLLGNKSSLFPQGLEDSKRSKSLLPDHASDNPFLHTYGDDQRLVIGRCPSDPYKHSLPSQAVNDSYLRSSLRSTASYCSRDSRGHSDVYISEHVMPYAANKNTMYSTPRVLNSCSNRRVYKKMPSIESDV
T4 sequence (Q00961 20-1237, other chains not shown): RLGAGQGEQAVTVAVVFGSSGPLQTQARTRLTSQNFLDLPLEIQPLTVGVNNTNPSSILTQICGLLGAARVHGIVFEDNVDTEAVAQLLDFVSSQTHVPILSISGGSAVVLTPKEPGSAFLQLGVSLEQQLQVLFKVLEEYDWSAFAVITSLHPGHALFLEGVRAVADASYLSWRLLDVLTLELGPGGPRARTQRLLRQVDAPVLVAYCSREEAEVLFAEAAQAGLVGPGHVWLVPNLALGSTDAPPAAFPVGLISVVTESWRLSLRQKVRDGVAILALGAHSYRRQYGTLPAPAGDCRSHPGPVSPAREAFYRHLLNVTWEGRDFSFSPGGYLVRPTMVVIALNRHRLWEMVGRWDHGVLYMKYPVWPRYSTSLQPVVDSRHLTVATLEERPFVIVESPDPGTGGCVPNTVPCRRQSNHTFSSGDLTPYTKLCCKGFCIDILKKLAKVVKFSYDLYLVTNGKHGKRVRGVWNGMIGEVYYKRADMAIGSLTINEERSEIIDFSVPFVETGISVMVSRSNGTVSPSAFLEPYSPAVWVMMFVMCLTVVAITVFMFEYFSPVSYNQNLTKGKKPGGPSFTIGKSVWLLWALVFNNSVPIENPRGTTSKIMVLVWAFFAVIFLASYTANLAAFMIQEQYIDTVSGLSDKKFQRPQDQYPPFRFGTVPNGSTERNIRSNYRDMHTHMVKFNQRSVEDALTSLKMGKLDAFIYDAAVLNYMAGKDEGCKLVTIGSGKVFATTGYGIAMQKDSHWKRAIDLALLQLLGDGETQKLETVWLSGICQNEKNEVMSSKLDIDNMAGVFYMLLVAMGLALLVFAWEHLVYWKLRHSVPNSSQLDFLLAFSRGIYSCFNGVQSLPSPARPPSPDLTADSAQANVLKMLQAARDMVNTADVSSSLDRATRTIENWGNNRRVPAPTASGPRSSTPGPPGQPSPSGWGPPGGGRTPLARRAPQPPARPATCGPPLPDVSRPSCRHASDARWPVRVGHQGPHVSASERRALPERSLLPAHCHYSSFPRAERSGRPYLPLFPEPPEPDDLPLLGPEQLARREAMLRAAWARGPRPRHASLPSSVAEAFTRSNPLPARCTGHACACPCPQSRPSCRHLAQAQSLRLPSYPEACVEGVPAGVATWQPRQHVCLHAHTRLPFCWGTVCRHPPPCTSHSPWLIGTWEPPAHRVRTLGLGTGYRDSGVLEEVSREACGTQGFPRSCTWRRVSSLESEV

Row | IC50 [4] [µM] | IC50 [2, 8] [µM] | SMILES | GluN2B IC50 [1] | GluN2A IC50 [3] | further results
1 |  |  | O=C(CC(F)(F)CO)N1N=C(c2c(-c3ccc(Cl)cc3)c3ccccc3[nH]c2=O)CC1c1ccc(Cl)cc1 (centres unmarked) [997-67, 4-(4-chlorophenyl)-3-[5-(4-chlorophenyl)-1-(3,3-difluoro-4-hydroxybutanoyl)-4,5-dihydro-1H-pyrazol-3-yl]quinolin-2(1H)-one] | NE (NE indicates less than 50% inhibition at 30 μM.) | NE (NE indicates less than 50% inhibition at 30 μM.) | IC50 [2, 7]: 0.8 to 2 µM
2 | 4.3 | 1.4 | O=C(CC(F)(F)CO)N1N=C(c2c(-c3cccc(F)c3)c3ccccc3[nH]c2=O)CC1c1ccc(Cl)cc1 (centres unmarked) [997-68, 3-[5-(4-chlorophenyl)-1-(3,3-difluoro-4-hydroxybutanoyl)-4,5-dihydro-1H-pyrazol-3-yl]-4-(3-fluorophenyl)quinolin-2(1H)-one] | NE (NE indicates less than 50% inhibition at 30 μM.) | NE (NE indicates less than 50% inhibition at 30 μM.) | IC50 [2, 7]: 0.8 to 2 µM
3 | 17 | 2 | O=C(N1N=C(c2c(-c3ccc(Cl)cc3)c3ccccc3[nH]c2=O)CC1c1ccc(Cl)cc1)C(F)(F)CCO (centres unmarked) [997-75, 4-(4-chlorophenyl)-3-[5-(4-chlorophenyl)-1-(2,2-difluoro-4-hydroxybutanoyl)-4,5-dihydro-1H-pyrazol-3-yl]quinolin-2(1H)-one] | NE (NE indicates less than 50% inhibition at 30 μM.) | NE (NE indicates less than 50% inhibition at 30 μM.) | IC50 [2, 7]: 0.8 to 2 µM
4 |  |  | O=C(O)CCC(=O)N1N=C(c2c(-c3ccncc3)c3ccccc3[nH]c2=O)CC1c1ccc(Cl)cc1 (centres unmarked) [997-82, 4-(5-(4-chlorophenyl)-3-(2-oxo-4-(pyridin-4-yl)-1,2-dihydroquinolin-3-yl)-4,5-dihydro-1H-pyrazol-1-yl)-4-oxobutanoic acid] | NE (NE indicates less than 50% inhibition at 30 μM.) | NE (NE indicates less than 50% inhibition at 30 μM.) | 
5 | 7.1 | 4.4 | Cc1ccc2[nH]c(=O)c(C3=NN(C(=O)CC(F)(F)CO)C(c4ccc(Cl)cc4)C3)c(-c3ccc(Cl)cc3)c2c1 (centres unmarked) [997-91, 4-(4-chlorophenyl)-3-[5-(4-chlorophenyl)-1-(3,3-difluoro-4-hydroxybutanoyl)-4,5-dihydro-1H-pyrazol-3-yl]-6-methylquinolin-2(1H)-one] | NE (NE indicates less than 50% inhibition at 30 μM.) | NE (NE indicates less than 50% inhibition at 30 μM.) | 
6 | 4.8 | 6.2 | O=C(O)CC(F)(F)C(=O)N1N=C(c2ccccc2-c2ccc(Cl)cc2)CC1c1ccc(Cl)cc1 (centres unmarked) [997-95, 4-(3-(4′-chloro-[1,1′-biphenyl]-2-yl)-5-(4-chlorophenyl)-4,5-dihydro-1H-pyrazol-1-yl)-3,3-difluoro-4-oxobutanoic acid] |  |  | IC50 [5]: 6.4 µM; 2A IC50 / 2D IC50 [6]: 5; 2B IC50 / 2D IC50 [6]: 1
7 | 0.5 | 0.2 | NC(=O)CC(F)(F)C(=O)N1N=C(c2c(-c3ccc(Cl)cc3)c3ccccc3[nH]c2=O)CC1c1ccc(Cl)cc1 (centres unmarked) [997-96, 4-(5-(4-chlorophenyl)-3-(4-(4-chlorophenyl)-2-oxo-1,2-dihydroquinolin-3-yl)-4,5-dihydro-1H-pyrazol-1-yl)-3,3-difluoro-4-oxobutanamide] |  |  | IC50 [5]: 2.8 µM; 2A IC50 / 2D IC50 [6]: 150; 2B IC50 / 2D IC50 [6]: 14
8 | 0.44 |  | O=C(O)CC(F)(F)C(=O)N1N=C(c2c(-c3ccc(Cl)cc3)c3ccccc3[nH]c2=S)CC1c1ccc(Cl)cc1 (centres unmarked) [997-98, 4-(5-(4-chlorophenyl)-3-(4-(4-chlorophenyl)-2-thioxo-1,2-dihydroquinolin-3-yl)-4,5-dihydro-1H-pyrazol-1-yl)-3,3-difluoro-4-oxobutanoic acid] | inactive | inactive | GluN2B IC50 ([1]; listed as 98): NE (NE indicates less than 50% inhibition at 30 μM.); IC50 [2, 9]: 0.14 µM; GluN2A IC50 ([3]; listed as 98): NE (NE indicates less than 50% inhibition at 30 μM.)
9 | 16 | 12 | O=C(O)CCC(=O)N1N=C(c2ccccc2-c2ccc(Cl)cc2)CC1c1ccc(Cl)cc1 (centres unmarked) [997-99, 4-(3-(4′-chloro-[1,1′-biphenyl]-2-yl)-5-(4-chlorophenyl)-4,5-dihydro-1H-pyrazol-1-yl)-4-oxobutanoic acid] | NE (NE indicates less than 50% inhibition at 30 μM.) | NE (NE indicates less than 50% inhibition at 30 μM.) | 
10 | 7 | 3.1 | O=C(O)CC(F)(F)C(=O)N1N=C(c2c(-c3ccc(F)cc3)c3ccccc3[nH]c2=O)CC1c1ccc(F)cc1 (centres unmarked) [997-103, 3,3-difluoro-4-(5-(4-fluorophenyl)-3-(4-(4-fluorophenyl)-2-oxo-1,2-dihydroquinolin-3-yl)-4,5-dihydro-1H-pyrazol-1-yl)-4-oxobutanoic acid] | NE (NE indicates less than 50% inhibition at 30 μM.) | NE (NE indicates less than 50% inhibition at 30 μM.) | 
11 | 6.7 | 5.1 | O=C(O)CCC(=O)N1N=C(c2c(-c3ccc(F)cc3)c3ccccc3[nH]c2=O)CC1c1ccc(F)cc1 (centres unmarked) [997-105, 4-(5-(4-fluorophenyl)-3-(4-(4-fluorophenyl)-2-oxo-1,2-dihydroquinolin-3-yl)-4,5-dihydro-1H-pyrazol-1-yl)-4-oxobutanoic acid] | NE (NE indicates less than 50% inhibition at 30 μM.) | NE (NE indicates less than 50% inhibition at 30 μM.) | 
12 | 0.43 |  | O=C(O)CC(F)(F)C(=O)N1N=C(c2c(-c3ccc(Cl)cc3)c3ccccc3[nH]c2=O)CC1c1ccc(Cl)s1 (centres unmarked) [997-110, 4-(3-(4-(4-chlorophenyl)-2-oxo-1,2-dihydroquinolin-3-yl)-5-(5-chlorothiophen-2-yl)-4,5-dihydro-1H-pyrazol-1-yl)-3,3-difluoro-4-oxobutanoic acid] |  |  | IC50 [5]: 100 µM; selectivity at GluN2D- over GluN2B-containing receptor [6]: 625 fold; fold decrease of potency at GluN2D in comparison to 997-74 ([6]; comparator 997-74): 3 fold; 2B IC50 / 2D IC50 [6]: 625; IC50 [2, 9]: 0.16 µM
13 | 1.44 | 0.343 | NC(=O)C(F)(F)CC(=O)N1N=C(c2c(-c3ccc(Cl)cc3)c3ccccc3[nH]c2=O)CC1c1ccc(Cl)cc1 (centres unmarked) [997-115, 4-(5-(4-chlorophenyl)-3-(4-(4-chlorophenyl)-2-oxo-1,2-dihydroquinolin-3-yl)-4,5-dihydro-1H-pyrazol-1-yl)-2,2-difluoro-4-oxobutanamide] | NE (NE indicates less than 50% inhibition at 30 μM.) | NE (NE indicates less than 50% inhibition at 30 μM.) | 
14 | 13.5 | 12.3 | O=C(O)CC(F)(F)C(=O)N1N=C(c2ccccc2-c2ccc(F)cc2F)CC1c1ccc(Cl)cc1 (centres unmarked) [997-121, 4-(5-(4-chlorophenyl)-3-(2′,4′-difluoro-[1,1′-biphenyl]-2-yl)-4,5-dihydro-1H-pyrazol-1-yl)-3,3-difluoro-4-oxobutanoic acid] | NE (NE indicates less than 50% inhibition at 30 μM.) | NE (NE indicates less than 50% inhibition at 30 μM.) | fold decrease of activity in comparison to 997-95 ([6]; comparator 997-95): 2 fold
